Assay [1] deals with T1, Type-1 angiotensin II receptor (Homo sapiens, UniProt P30556).
T1 sequence (P30556 whole entry): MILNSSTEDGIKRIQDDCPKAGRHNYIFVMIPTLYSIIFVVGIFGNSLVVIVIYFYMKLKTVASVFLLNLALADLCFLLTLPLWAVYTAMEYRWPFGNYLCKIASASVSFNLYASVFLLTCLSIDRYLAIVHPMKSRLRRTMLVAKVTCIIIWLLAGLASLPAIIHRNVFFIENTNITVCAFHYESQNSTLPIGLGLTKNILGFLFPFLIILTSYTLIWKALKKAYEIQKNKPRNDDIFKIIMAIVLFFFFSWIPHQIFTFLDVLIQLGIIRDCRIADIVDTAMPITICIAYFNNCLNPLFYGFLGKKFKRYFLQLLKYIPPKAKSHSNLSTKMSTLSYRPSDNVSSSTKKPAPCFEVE

Assay [2] deals with T2, Cholecystokinin receptor type A (Homo sapiens, UniProt P32238).
T2 sequence (P32238 whole entry): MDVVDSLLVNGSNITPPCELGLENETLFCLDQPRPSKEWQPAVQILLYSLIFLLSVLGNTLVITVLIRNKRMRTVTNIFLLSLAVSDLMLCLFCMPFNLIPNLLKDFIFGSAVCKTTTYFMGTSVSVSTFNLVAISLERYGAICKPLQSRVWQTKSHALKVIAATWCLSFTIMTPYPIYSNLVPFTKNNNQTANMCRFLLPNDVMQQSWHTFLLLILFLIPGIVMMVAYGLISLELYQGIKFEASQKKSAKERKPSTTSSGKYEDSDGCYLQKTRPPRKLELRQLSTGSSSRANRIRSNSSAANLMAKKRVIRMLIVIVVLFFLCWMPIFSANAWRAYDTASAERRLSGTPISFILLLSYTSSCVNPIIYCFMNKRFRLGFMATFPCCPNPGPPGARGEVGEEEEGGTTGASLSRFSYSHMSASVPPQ

The target in assay [3] is Neuronal acetylcholine receptor subunit alpha-4 (Homo sapiens, UniProt P43681).
The next assay has as its target Cannabinoid receptor 1 (Homo sapiens, UniProt P21554). The class given is functional, cell-based.
In another assay the target is T3, Estrogen receptor (Homo sapiens, UniProt P03372).
T3 sequence (P03372 whole entry): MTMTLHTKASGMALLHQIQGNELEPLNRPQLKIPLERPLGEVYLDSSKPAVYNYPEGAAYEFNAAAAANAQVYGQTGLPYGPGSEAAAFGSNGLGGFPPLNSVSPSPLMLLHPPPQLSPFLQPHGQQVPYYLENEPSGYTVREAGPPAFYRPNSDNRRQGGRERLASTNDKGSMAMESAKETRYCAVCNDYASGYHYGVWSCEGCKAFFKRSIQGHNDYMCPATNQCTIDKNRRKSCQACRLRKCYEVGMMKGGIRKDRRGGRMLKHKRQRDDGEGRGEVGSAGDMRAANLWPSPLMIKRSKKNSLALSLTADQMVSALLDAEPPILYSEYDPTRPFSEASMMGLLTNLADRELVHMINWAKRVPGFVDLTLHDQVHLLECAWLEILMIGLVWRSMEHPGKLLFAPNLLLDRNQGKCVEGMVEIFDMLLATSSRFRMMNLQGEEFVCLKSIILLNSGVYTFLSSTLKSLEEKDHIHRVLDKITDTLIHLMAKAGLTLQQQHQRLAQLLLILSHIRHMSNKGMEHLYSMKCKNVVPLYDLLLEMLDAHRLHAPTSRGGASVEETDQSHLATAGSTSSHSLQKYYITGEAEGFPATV

In assay [4] the target is Growth hormone secretagogue receptor type 1 (Homo sapiens, UniProt Q92847).
In assay [5] the target is Glutamate receptor ionotropic, NMDA 1 (Rattus norvegicus, UniProt P35439).
A further assay addresses Histamine H1 receptor (Homo sapiens, UniProt P35367).
Assay [6] has as its target 5-hydroxytryptamine receptor 2B (Homo sapiens, UniProt P41595). The class given is functional, cell-based.
Assay [7] has as its target T4, 5-hydroxytryptamine receptor 3A (Homo sapiens, UniProt P46098).
T4 sequence (P46098 whole entry): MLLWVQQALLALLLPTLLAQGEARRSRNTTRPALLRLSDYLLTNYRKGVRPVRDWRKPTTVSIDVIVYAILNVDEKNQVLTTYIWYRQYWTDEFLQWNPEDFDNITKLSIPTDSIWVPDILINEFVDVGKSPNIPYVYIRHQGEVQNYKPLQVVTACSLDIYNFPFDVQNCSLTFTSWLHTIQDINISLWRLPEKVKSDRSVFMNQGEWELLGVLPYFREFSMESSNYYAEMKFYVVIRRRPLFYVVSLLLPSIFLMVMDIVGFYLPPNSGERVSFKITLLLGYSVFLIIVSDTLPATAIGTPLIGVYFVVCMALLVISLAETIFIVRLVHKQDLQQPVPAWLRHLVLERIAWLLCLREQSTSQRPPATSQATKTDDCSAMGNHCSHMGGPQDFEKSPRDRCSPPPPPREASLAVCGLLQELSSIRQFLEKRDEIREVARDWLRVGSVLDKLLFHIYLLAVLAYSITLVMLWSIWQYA
In kind it is functional.

The target in assay [8] is T5, Neuropeptide Y receptor type 1 (Homo sapiens, UniProt P25929).
T5 sequence (P25929 whole entry): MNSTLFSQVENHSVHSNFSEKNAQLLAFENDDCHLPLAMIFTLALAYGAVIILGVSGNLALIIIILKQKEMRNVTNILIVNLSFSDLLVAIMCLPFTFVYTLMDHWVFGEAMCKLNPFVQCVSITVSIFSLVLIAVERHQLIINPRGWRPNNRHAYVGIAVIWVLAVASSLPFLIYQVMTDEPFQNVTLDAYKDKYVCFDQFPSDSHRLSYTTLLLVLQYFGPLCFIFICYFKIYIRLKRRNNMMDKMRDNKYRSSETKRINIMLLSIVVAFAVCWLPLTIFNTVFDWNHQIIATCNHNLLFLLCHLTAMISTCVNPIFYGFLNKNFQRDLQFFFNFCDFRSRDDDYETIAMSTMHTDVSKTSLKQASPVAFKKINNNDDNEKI

For assay [9], the target named is Kappa-type opioid receptor (Homo sapiens, UniProt P41145).
Another assay deals with Mu-type opioid receptor (Homo sapiens, UniProt P35372). The assay can be described thus: biochemical. In kind it is functional.
Assay [10] deals with 3',5'-cyclic-AMP phosphodiesterase 4D (Homo sapiens, UniProt Q08499). The class given is functional.
Assay [11] addresses cGMP-inhibited 3',5'-cyclic phosphodiesterase 3A (Homo sapiens, UniProt Q14432). In kind it is functional.
Also: assay procedure not described here.

Sequence of Neuronal acetylcholine receptor subunit alpha-4 (P43681 whole entry): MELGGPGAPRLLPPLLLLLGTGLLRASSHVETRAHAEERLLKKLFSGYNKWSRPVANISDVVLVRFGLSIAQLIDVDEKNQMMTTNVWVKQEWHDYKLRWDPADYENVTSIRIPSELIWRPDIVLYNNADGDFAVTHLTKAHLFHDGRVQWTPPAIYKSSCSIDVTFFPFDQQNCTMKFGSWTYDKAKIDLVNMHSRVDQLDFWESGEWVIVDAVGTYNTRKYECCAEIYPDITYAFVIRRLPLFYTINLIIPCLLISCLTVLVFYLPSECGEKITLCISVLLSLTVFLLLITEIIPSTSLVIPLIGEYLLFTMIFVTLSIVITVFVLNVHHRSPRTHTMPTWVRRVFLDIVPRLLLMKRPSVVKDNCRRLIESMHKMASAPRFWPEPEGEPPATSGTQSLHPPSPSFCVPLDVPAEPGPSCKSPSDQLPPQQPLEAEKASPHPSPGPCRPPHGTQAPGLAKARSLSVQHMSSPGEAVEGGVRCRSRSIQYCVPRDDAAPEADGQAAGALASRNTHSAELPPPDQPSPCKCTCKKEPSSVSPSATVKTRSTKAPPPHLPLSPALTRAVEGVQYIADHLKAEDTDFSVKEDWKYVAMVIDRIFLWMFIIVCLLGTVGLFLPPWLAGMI
Sequence of Cannabinoid receptor 1 (P21554 whole entry): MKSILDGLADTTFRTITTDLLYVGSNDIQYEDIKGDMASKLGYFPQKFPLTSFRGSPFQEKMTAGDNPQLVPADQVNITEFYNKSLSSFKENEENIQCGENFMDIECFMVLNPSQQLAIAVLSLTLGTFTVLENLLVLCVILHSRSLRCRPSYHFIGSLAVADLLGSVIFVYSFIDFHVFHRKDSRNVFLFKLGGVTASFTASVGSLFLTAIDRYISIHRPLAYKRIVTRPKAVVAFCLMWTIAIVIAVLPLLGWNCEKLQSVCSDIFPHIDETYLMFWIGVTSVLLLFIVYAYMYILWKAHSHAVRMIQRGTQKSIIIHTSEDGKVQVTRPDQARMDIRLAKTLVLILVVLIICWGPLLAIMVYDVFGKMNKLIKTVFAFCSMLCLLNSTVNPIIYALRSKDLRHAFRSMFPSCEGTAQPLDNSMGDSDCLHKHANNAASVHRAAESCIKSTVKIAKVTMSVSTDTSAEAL
Sequence of 3',5'-cyclic-AMP phosphodiesterase 4D (Q08499 whole entry): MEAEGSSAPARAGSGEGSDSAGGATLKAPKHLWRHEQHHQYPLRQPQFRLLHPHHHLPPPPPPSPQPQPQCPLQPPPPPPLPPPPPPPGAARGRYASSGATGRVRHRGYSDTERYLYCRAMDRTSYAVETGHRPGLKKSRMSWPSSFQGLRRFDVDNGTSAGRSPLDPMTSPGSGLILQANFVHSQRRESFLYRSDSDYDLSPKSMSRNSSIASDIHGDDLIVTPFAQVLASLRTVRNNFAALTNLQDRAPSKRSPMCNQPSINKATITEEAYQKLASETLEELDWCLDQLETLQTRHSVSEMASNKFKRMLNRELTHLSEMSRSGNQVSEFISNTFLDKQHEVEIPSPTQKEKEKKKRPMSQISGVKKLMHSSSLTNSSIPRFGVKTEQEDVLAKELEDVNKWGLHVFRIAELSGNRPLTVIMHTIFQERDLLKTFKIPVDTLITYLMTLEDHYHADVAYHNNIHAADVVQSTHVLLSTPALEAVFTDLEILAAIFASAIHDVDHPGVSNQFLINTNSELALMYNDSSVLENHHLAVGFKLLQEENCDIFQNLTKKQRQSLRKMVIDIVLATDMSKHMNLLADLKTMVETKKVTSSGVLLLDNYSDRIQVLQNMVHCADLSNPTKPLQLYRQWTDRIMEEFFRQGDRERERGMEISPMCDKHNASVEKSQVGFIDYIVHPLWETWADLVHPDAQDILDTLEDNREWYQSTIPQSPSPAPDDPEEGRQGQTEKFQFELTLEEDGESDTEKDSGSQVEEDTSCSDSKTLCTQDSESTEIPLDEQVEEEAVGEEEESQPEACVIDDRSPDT
Sequence of cGMP-inhibited 3',5'-cyclic phosphodiesterase 3A (Q14432 whole entry): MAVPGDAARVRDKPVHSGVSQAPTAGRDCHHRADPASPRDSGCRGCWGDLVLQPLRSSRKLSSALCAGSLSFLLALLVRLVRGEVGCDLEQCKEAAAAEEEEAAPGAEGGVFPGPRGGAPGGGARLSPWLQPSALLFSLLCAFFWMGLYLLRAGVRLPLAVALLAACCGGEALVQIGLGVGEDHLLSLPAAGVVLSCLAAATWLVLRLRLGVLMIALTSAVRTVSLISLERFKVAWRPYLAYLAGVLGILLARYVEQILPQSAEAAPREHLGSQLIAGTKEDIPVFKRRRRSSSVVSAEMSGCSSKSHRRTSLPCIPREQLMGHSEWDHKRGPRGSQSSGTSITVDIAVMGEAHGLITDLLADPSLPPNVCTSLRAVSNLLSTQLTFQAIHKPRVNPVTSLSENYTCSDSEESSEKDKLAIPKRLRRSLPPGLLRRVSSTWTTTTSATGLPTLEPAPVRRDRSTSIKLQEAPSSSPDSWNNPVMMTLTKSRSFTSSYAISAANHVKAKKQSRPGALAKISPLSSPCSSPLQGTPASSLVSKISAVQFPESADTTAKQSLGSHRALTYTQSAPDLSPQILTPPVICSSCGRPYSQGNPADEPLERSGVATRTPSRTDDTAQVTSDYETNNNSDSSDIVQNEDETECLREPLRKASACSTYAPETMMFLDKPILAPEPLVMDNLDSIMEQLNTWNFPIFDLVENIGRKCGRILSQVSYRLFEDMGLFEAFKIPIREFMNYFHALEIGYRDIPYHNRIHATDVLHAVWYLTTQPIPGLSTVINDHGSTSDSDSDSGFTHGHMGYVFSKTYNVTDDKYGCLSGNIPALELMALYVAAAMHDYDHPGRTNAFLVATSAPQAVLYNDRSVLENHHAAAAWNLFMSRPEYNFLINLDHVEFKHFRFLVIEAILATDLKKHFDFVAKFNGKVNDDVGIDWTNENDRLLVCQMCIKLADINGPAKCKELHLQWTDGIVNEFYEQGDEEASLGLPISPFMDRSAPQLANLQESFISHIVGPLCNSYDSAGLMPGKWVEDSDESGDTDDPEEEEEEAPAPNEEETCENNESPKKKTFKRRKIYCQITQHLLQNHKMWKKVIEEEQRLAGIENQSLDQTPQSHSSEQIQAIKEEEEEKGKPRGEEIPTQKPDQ
Sequence of Kappa-type opioid receptor (P41145 whole entry): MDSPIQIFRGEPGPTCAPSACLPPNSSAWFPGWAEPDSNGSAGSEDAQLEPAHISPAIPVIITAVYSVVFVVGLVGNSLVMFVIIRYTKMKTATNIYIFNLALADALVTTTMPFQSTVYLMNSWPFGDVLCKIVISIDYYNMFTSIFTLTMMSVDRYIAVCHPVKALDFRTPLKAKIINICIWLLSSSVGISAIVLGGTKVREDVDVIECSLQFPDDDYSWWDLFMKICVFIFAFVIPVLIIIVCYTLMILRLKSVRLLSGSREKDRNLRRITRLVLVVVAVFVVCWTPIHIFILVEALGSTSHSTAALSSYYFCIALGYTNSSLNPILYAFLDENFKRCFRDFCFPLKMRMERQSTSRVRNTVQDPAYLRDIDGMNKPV
Sequence of 5-hydroxytryptamine receptor 2B (P41595 whole entry): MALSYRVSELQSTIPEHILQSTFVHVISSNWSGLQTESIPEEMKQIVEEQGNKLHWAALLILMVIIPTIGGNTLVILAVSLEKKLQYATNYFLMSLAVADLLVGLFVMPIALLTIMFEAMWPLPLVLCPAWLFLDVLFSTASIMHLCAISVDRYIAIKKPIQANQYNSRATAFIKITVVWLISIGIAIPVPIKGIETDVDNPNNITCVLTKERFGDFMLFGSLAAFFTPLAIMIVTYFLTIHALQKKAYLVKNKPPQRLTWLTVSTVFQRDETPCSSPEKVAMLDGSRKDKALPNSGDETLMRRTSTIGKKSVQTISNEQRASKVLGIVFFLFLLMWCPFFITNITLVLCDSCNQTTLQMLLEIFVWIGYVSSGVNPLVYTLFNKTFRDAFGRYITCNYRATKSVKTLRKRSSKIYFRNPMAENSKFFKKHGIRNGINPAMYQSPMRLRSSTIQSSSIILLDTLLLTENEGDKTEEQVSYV
Sequence of Mu-type opioid receptor (P35372 whole entry): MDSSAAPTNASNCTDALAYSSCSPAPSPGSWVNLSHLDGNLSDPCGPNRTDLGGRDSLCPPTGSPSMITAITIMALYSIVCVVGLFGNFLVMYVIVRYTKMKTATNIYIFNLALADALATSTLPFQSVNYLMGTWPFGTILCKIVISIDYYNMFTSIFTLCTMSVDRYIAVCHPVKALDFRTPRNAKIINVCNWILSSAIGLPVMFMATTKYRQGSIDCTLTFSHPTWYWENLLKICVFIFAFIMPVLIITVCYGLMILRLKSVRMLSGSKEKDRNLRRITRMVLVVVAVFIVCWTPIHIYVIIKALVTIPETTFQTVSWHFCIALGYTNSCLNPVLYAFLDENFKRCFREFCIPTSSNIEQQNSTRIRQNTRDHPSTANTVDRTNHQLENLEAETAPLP
Sequence of Histamine H1 receptor (P35367 whole entry): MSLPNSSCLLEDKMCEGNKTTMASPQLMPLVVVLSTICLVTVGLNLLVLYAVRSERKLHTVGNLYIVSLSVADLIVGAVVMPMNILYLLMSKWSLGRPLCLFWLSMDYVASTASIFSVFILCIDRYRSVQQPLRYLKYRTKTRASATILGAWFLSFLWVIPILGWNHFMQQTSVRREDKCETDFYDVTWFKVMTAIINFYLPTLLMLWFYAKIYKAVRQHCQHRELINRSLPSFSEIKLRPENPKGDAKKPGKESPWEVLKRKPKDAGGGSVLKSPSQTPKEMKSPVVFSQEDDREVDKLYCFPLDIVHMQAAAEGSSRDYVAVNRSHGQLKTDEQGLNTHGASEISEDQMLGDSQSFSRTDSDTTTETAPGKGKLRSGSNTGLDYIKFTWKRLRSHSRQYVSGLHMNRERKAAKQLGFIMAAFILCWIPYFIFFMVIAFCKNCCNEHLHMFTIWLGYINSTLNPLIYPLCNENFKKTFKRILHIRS

As usually defined, the AC50 is the concentration giving half of the maximal activity seen. Low readings indicate greater potency, high ones weaker potency. Consider `CC(C)=CCOc1ccc(/C=C/C(=O)c2ccc(OCC=C(C)C)cc2OCC(=O)O)cc1` [SOFALCONE], for which the AC50 was 7.5 µM in assay [1]; > 30 µM in assay [2]; > 30 µM in assay [3]; 11 µM at Cannabinoid receptor 1; > 30 µM on Estrogen receptor; > 30 µM in assay [4]. Further, the AC50 in assay [5] is > 30 µM; at Histamine H1 receptor, > 30 µM; in assay [6] it was > 30 µM; in assay [7] it was > 30 µM; in [8], > 30 µM; in assay [9], 12 µM. In addition, the AC50 (on Mu-type opioid receptor; in [10]; in [11]) was > 30 µM in each case.

(Values after ChEMBL document CHEMBL5291721, “A preclinical secondary pharmacology resource illuminates target-adverse drug reaction associations of marketed drugs” (Nat Commun, 2023).)
